Laboratory results taken from the NIST ThermoML archive (doi:10.1016/j.jct.2016.04.006).

Assay: mn = molality of the nth substance listed, in mol/kg
Conditions: 100 kPa, Liquid, Capillary tube (Ostwald / Ubbelohde) method

NCC(=O)O [2-aminoacetic acid] + O
viscosity [mPa·s]
Conditions	m1 = 0.05	m1 = 0.15	m1 = 0.25	m1 = 0.35	m1 = 0.5
288.15 K	1.146	1.16	1.175	1.19	1.213
298.15 K	0.896	0.909	0.921	0.934	0.953
308.15 K	0.723	0.735	0.745	0.755	0.77
318.15 K	0.603	0.609	0.618	0.626	0.639

C[C@@H](O)[C@@H](O)[C@H](O)[C@H](O)C=O [6-deoxy-D-mannose] + O
viscosity [mPa·s]
Conditions	m1 = 0.0395	m1 = 0.0753	m1 = 0.1036	m1 = 0.1173	m1 = 0.1403
288.15 K	1.164	1.183	1.2	1.208	1.22
298.15 K	0.91	0.922	0.933	0.945	0.951
308.15 K	0.732	0.744	0.753	0.759	0.766
318.15 K	0.607	0.616	0.623	0.626	0.633

OC[C@H]1O[C@@H](O[C@H]2[C@H](O)[C@@H](O)[C@H](O)O[C@@H]2CO)[C@H](O)[C@@H](O)[C@@H]1O [D-cellobiose] + O
viscosity [mPa·s]
Conditions	m1 = 0.0529	m1 = 0.0639	m1 = 0.0903	m1 = 0.1292	m1 = 0.1479	m1 = 0.1603
288.15 K	1.193	1.203	1.231	1.269	1.286	1.3
298.15 K	0.928	0.941	0.961	0.99	1.001	1.011
308.15 K	0.748	0.757	0.771	0.796	0.807	0.813
318.15 K	0.621	0.625	0.64	0.657	0.664	0.67

O=C[C@H](O)[C@@H](O)[C@H](O)[C@H](O)CO [D-glucose] + O
viscosity [mPa·s]
Conditions	m1 = 0.0523	m1 = 0.0745	m1 = 0.0885	m1 = 0.1034	m1 = 0.1197	m1 = 0.142
288.15 K	–	1.183	1.185	1.192	1.205	1.219
298.15 K	0.911	0.921	0.926	0.933	0.938	0.948
308.15 K	0.735	0.743	0.747	0.751	0.756	0.762
318.15 K	0.609	0.614	0.618	0.621	0.625	0.63
